# Reference: US20170246144A1, “METHOD OF PREVENTING OR TREATING SPINOCEREBELLAR ATAXIA BY ADMINISTRATING SILIBININ” (National Taiwan Normal University, priority 2016, published 2017)
# Where two headings read alike, the source gives them in different places.
# Assays:
# nTBP/Q79-EGFP cells [1] = assay: Western blotting of caspase family proteins in Dox-induced nTBP/Q79-EGFP cells; format: cell-based; conditions: Homo sapiens, 120 h, Dox 5 days
# Experimental: (§1) FIGS. 8A-8C show the effects of SB on improving the viability of nTBP/Q79-EGFP cells and inhibiting the expression levels of cleaved caspase-9, cleaved caspase-3, and cleaved PARP in nTBP/Q79-EGFP cells induced by doxycycline (Dox). FIG. 8A: The viabilities of 1.0×10^6 nTBP/Q36-EGFP cells and nTBP/Q79-EGFP cells which were pretreated with 15 μM SB for 1 hour followed by the induction of Dox for 1, 3, and 5 days were measured by MTT assay. FIG. 8B: 1.0×10^6 nTBP/Q36-EGFP cells and nTBP/Q79-EGFP cells were pretreated with 15 μM SB for 1 hour followed by the induction of Dox for 5 days. The levels of cleaved caspase-9, cleaved caspase-3, and cleaved PARP were detected by western blotting. Actin was used as a loading control. […] The results were shown as mean±SD, n=3, *p<0.05, comparing to the Dox group.
# Western blotting was used to determine whether silibinin can inhibit cell death due to the expression of nTBP/Q79-EGFP via caspase-dependent apoptosis pathway.
# nTBP/Q36-EGFP cells and nTBP/Q79-EGFP cells were treated with 15 μM silibinin for 1 hour followed by the treatment of 10 μg/mL Dox and RA for 5 days.
# SH-SY5Y cells [2] = assay: Western blotting of Bax and Bcl-2 after MSG; format: cell-based, Human; conditions: 15 μM, 100 mM MSG, 6 hours
# Experimental: The levels of Bax and Bcl-2 in 1×10^6 SH-SY5Y cells were measured by western blotting, wherein the control group (Ctrl) was untreated SH-SY5Y cells or the cells were treated with 100 mM MSG, 100 mM MSG+15 μM SB or 100 mM MSG+10 μM MK801 (MK) for 6 hours. Actin was used as a loading control.
# In present embodiment, western blotting was performed to study whether silibinin protects SH-SY5Y cell from apoptosis due to glutamatergic excitotoxicity via mitochondria-dependent apoptosis pathway.
# It is known that the reduction of Bcl-2 level and the increases of Bax level are related to the increases of free calcium ion in cytosol. Bcl-2 is a cell-survival protein and Bax is a pro-apoptotic protein and they both mediate the releases of cytochrome C from mitochondria. Therefore, Bcl-2 and Bax are used as indicators in the present embodiment.
# nTBP/Q79-EGFP cells [3] = assay: Dot blot and western blotting of protein aggregation, anti-TBP (N12); format: cell-based, Human; conditions: 15 μM, Dox 5 days
# Experimental: FIGS. 9A-9C show the effects of SB on protein aggregation in nTBP/Q79-EGFP cells after the induction of Dox, which were analyzed by western blotting and dot blot assays. 1.0×10^6 nTBP/Q36-EGFP cells or nTBP/Q79-EGFP cells were pretreated with 15 μM SB for 1 hour followed by the treatment of 10 μg/mL Dox. Cell lysates were analyzed using western blotting and dot blot assays with anti-TBP (N12) antibody. […] The values represent means±SD. Data were the mean values of three independent experiments.
# In the present example, dot blot and western blotting methods were used to analyze whether silibinin can reduce the protein aggregation in nTBP/Q79-EGFP cells induced by Dox.
# nTBP/Q36-EGFP cells and nTBP/Q79-EGFP cells were cultured in 6 cm petri-dish for 24 hours followed by the treatment of 15 μM silibinin for 1 hour and the treatment of […] and 10 μM RA for 5 days. The proteins were extracted from the treated cells and analyzed by dot blot and western blotting, wherein the primary antibody is TBP(N-12) antibody and the secondary antibody is HRP conjugated anti-rabbit antibody.
# nTBP/Q79-EGFP cells [4] = assay: MTT viability of Dox-induced nTBP/Q79-EGFP cells; format: cell-based, Human; conditions: 15 μM, Dox induction 5 days
# Experimental: as §1
# Human neuroblastoma SH-SY5Y cell line was obtained from American Type Culture Collection (ATCC). nTBP/Q36-EGFP cells (poly-Q of TATA-binding protein contains 36 glutamines in SH-SY5Y cells) and nTBP/Q79-EGFP cells (poly-Q of TATA-binding protein contains 79 glutamines in SH-SY5Y cells) were kindly supplied by Dr. Guey-Jen Lee-Chen, National Taiwan Normal University (NTNU). […]
# The cell viability was measured using MTT colorimetric assay as mentioned previously. […]
# SH-SY5Y cells [5] = assay: Western blotting of cleaved caspase-9, cleaved caspase-3 and cleaved PARP after MSG; format: cell-based, Human; conditions: 15 μM, 100 mM MSG, 24 hours
# Experimental: FIGS. 5A-5D show the effects of SB on the levels of cleaved caspase-9, cleaved caspase-3, and cleaved poly(ADP-ribose) polymerase (PARP) in SH-SY5Y cells treated with MSG FIG. 5A: The levels of […] in 1×10^6 SH-SY5Y cells were measured by western blotting, wherein the control group (Ctrl) was untreated SH-SY5Y cells or the cells were treated with 100 mM MSG, 100 mM MSG+15 μM SB or 100 mM MSG+10 μM MK801 (MK) for 24 hours. Actin was used as a loading control. FIGS. 5B-5D show the quantification results measured by western blotting. Data were the mean values of three independent experiments.
# Caspase belongs to cysteine protease family which is typically closely related to apoptosis, wherein the activation of caspase-9, caspase-3 and […] PARP is associated with delayed excitotoxicity damages. Therefore, western blotting was performed to analyze whether silibinin can protect SH-SY5Y cells from death via caspase-dependent apoptosis pathway in the present embodiment.
structure (smiles),measurement,setting,value
COc1cc(C2Oc3cc([C@H]4Oc5cc(O)cc(O)c5C(=O)[C@@H]4O)ccc3OC2CO)ccc1O (some centres unmarked) [silibinin],inhibition at 15 µM,nTBP/Q79-EGFP cells [1]; read-out: inhibition of cleaved-PARP level,~44%
same,inhibition at 15 µM,nTBP/Q79-EGFP cells [1]; read-out: inhibition of cleaved-caspase-3 level,~100%
same,inhibition at 15 µM,nTBP/Q79-EGFP cells [1]; read-out: inhibition of cleaved-caspase-9 level,~88%
same,"increase of Bcl-2 level, compared to MSG only",SH-SY5Y cells [2],approximately 167%
same,"reduction of Bax level, compared to MSG only",SH-SY5Y cells [2],80%
same,"reduction of protein aggregation, dot blot",nTBP/Q79-EGFP cells [3],67%
same,"reduction of protein aggregation, western blotting",nTBP/Q79-EGFP cells [3],90%
same,increase of cell viability of nTBP/Q79-EGFP cells,nTBP/Q79-EGFP cells [4],approximately 20%
same,"reduction of cleaved PARP level, compared to the increased level with MSG only",SH-SY5Y cells [5],52%
same,"reduction of cleaved-caspase-3 level, compared to the increased level with MSG only",SH-SY5Y cells [5],83%
same,"reduction of cleaved-caspase-9 level, compared to the increased level with MSG only",SH-SY5Y cells [5],125%
